# Measurements as given in patent US5607960A, “Indole derivatives as 5-HT1-like agonists for use in migraine” (Pfizer Inc., priority 1993, dated 1997).
# Experiments:
# "5-HT1 -like" receptor [1] = target: T1, "5-HT1 -like" receptor (Canis lupus familiaris, UniProt P79250); test: contraction of dog isolated saphenous vein strip (in vitro "5-HT1 -like" receptor agonist activity); format: cell-based; settings: for EC50: concentration which causes 50% of the maximum contraction effected by the compound; for RELATIVE POTENCY EC50 (compound) / EC50 (5-HT): ratio to 5-HT
# T1 construct: dog isolated saphenous vein strip; from tissue; host or cells: dog isolated saphenous vein strip
# From the text: EC50 represents the concentration of compound which causes 50% of the maximum contraction effected by it.
# [2] = acute toxicity in conscious dog, i.v.; format: in vivo; settings: doses of up to 1 mg/Kg i.v.
# [3] = acute toxicity in conscious mouse, i.v.; format: in vivo; settings: doses of up to 10 mg/Kg i.v.
# carotid vascular bed = settings: anaesthetized dog; cited from earlier work
# "5-HT1 -like" receptor [4] = target: T1, "5-HT1 -like" receptor; settings: cited from earlier work
# T1 sequence (P79250 whole entry): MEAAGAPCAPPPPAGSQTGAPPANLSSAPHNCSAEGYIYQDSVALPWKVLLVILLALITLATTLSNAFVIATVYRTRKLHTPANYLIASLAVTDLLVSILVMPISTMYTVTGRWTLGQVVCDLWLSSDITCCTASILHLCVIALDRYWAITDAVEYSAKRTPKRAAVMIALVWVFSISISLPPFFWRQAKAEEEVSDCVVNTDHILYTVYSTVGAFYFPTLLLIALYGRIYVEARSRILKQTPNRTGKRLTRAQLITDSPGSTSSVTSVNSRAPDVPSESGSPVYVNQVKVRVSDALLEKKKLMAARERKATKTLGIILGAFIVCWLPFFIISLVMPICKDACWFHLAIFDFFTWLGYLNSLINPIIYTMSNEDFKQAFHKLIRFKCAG
Compound,"EC50 (""5-HT1 -like"" receptor [1]) [nM]","RELATIVE POTENCY EC50 (compound) / EC50 (5-HT) (""5-HT1 -like"" receptor [1])",further results
"CN1CCC[C@@H]1Cc1c[nH]c2ccc(C=CC(C)(C)O)cc12 [Example 1, 5-(3-Hydroxy-3-methyl-1-but-1-enyl)-3-(N-methyl-2(R)-pyrrolidinylmethyl)-1H-indole]",400,7.7,–
"CC(C)(O)CCc1ccc2[nH]cc(C[C@H]3CCCN3CC3CC3)c2c1 [Example 25, 3-(N-Cyclopropylmethyl-2(R)-pyrrolidinylmethyl)-5-(3-hydroxy-3-methyl-1-butyl)-1H-indole]",480,6.4,–
"CC(C)(O)CCc1ccc2[nH]cc(C[C@H]3CCCN3)c2c1 [Example 29, 5-(3-Hydroxy-3-methyl-1-butyl)-3-(2(R)-pyrrolidinylmethyl)-1H-indole]",670,9.0,signs of adverse acute toxicity [2]: no signs of adverse acute toxicity; signs of adverse acute toxicity [3]: no signs of adverse acute toxicity
"CC(C)(O)CCc1ccc2[nH]cc(C[C@H]3CCCN3CCc3ccncc3)c2c1 [Example 30, 5-(3-Hydroxy-3-methyl-1-butyl)-3-{N-[2-(4-pyridyl)ethyl]-2(R)-pyrrolidinylmethyl}-1H-indole]",940,7.2,–
"CC(=O)CCc1ccc2[nH]cc(C[C@H]3CCCN3)c2c1 [Example 37, 5-(3-Oxo-1-butyl)-3-(2(R)-pyrrolidinylmethyl)-1H-indole]",130,1.3,–
"CC(O)CCc1ccc2[nH]cc(C3CCN(C)CC3)c2c1 (centres unmarked) [Example 43, 5-(3-Hydroxy-1-butyl)-3-(N-methyl-4-piperidyl)-1H-indole]",560,8.0,–
"CC(C)(O)CCc1ccc2[nH]cc(CCN)c2c1 [Example 48, 3-(2-Aminoethyl)-5-(3-hydroxy-3-methyl-1-butyl)-1H-indole]",300,3.2,–
"CC(O)(CCc1ccc2[nH]cc(C[C@H]3CCCN3)c2c1)C(F)(F)F (stereo partly drawn) [Example 95, 5-(3-Hydroxy-3-trifluoromethyl-1-butyl)-3-(2(R)-pyrrolidinylmethyl)-1H-indole]",320,4.0,–
"CN(C)C(=O)CCN1CCC[C@@H]1Cc1c[nH]c2ccc(CCC3(O)CCOC3)cc12 (stereo partly drawn) [Example 101, 5-[2-(3-Hydroxy-3-tetrahydrofuranyl)ethyl]-3-{N-[2-(N,N-dimethylcarbamoyl)ethyl]-2(R)-pyrrolidinylmethyl}-1H-indole]",700,10.0,–
"OC1(CCc2ccc3[nH]cc(C4CCNC4)c3c2)CCCC1 (centres unmarked) [Example 109, 5-[2-(1-Hydroxycyclopentyl)ethyl]-3-(3-pyrrolidinyl)-1H-indole]",750,8.5,–
"CNS(=O)(=O)Cc1ccc2[nH]cc(CCN(C)C)c2c1 [Sumatriptan, sumatriptan]",–,–,"carotid arterial blood flow (carotid vascular bed): decrease in carotid arterial blood flow; carotid vascular resistance (carotid vascular bed): selective increase in carotid vascular resistance; contraction of the isolated dog saphenous vein strip (""5-HT1 -like"" receptor [4]; P.P.A. Humphrey et al., Brit. J. Pharmacol., 1988, 94, 1123): contracting the isolated dog saphenous vein strip"
CSc1ccc2c(c1)C(N1CCN(C)CC1)Cc1ccccc1S2 (centres unmarked) [methiothepin],–,–,"blockade of the contraction effect (""5-HT1 -like"" receptor [4]; isolated dog saphenous vein strip, known 5-HT antagonist): blocked"
